Source: ChEMBL document CHEMBL1157604 (J Med Chem, 2010)
pIC50: −log10 of the molar value. Activity calls are given as the source filed them. No cut-off for these calls is given here.

Legend:
Mus musculus [1] = species: Mus musculus; assay: Antinociceptive activity in ICR mouse D'Amour and Smith model of pain assessed as inhibition of nicotine-induced response by tail-flick test; assay type: functional
[2] = target: Acetylcholine receptor; alpha1/beta1/delta/gamma (Homo sapiens) (UniProt P02708+P07510+P11230+Q07001); assay: Intrinsic activity at alpha-1-beta-1-gamma-delta nAChR receptor expressed in human TE671/RD cells assessed as 86Rb+ efflux at 5 to 100 uM by liquid scintillation counting; assay type: cell-based
[3] = target: Sodium-dependent noradrenaline transporter (Homo sapiens, UniProt P23975); assay: Inhibition of [3H]norepinephrine uptake at human NET expressed in HEK293 cells; assay type: cell-based
Sodium-dependent noradrenaline transporter, sequence (P23975 whole entry): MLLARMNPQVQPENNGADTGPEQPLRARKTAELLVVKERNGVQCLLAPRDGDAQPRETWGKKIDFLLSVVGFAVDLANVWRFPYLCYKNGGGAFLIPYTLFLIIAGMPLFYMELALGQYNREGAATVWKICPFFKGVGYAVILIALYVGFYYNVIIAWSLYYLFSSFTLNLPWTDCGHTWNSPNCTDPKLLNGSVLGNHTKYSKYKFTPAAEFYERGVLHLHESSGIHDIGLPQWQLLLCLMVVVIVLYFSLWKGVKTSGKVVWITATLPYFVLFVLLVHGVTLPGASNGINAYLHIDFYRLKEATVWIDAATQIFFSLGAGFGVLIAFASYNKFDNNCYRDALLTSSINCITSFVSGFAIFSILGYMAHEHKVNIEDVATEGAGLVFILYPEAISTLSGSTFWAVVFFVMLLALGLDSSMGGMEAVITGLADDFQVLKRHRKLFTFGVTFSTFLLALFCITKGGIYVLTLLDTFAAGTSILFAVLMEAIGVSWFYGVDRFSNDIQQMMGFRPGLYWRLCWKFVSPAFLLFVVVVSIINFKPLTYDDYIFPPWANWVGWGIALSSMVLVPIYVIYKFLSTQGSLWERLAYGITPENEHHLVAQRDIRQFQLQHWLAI

Mus musculus [4] = species: Mus musculus; assay: Effect on body temperature in ICR mouse assessed as inhibition of nicotine-induced hypothermic response; assay type: functional
[5] = target: Neuronal acetylcholine receptor; alpha4/beta2 (Homo sapiens) (UniProt P17787+P43681); assay: Intrinsic activity at human alpha4beta2 nAChR receptor expressed in human SH-SY5Y cells assessed as 86Rb+ efflux at 5 to 100 uM by liquid scintillation counting; assay type: cell-based
[6] = target: Sodium-dependent serotonin transporter (Homo sapiens, UniProt P31645); assay: Inhibition of [3H]serotonin uptake at human SERT expressed in HEK293 cells; assay type: cell-based
Sodium-dependent serotonin transporter, sequence (P31645 whole entry): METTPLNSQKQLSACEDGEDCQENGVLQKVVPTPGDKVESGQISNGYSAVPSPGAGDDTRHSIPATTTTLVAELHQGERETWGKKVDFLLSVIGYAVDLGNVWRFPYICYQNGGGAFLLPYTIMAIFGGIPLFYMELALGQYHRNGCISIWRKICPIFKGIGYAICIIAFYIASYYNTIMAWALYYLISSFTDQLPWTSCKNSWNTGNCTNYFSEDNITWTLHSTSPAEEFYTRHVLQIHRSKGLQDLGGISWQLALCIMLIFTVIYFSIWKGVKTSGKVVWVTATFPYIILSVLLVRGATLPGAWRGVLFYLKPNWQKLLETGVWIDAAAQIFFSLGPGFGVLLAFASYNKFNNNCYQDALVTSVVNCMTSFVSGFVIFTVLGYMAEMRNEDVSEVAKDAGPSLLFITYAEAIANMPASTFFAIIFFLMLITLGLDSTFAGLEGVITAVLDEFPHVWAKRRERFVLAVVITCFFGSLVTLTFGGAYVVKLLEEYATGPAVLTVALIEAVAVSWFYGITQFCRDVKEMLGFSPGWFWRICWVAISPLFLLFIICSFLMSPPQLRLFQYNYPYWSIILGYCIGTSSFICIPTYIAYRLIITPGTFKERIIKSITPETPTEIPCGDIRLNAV

Mus musculus [7] = species: Mus musculus; assay: Effect on behavioral activity in ICR mouse assessed as inhibition of nicotine-induced locomotory response by locomotor assay; assay type: functional
Mus musculus [8] = species: Mus musculus; assay: Antinociceptive activity in ICR mouse assessed as inhibition of nicotine-induced response by hotplate test; assay type: functional
[9] = target: Neuronal acetylcholine receptor; alpha4/beta4 (Homo sapiens) (UniProt P30926+P43681); assay: Intrinsic activity at human alpha4beta4 nAChR receptor expressed in human SH-SY5Y cells assessed as 86Rb+ efflux at 5 to 100 uM by liquid scintillation counting; assay type: cell-based
[10] = target: Neuronal acetylcholine receptor; alpha3/beta4 (Homo sapiens) (UniProt P30926+P32297); assay: Intrinsic activity at alpha3beta4 nAChR receptor in human SH-SY5Y cells assessed as 86Rb+ efflux at 5 to 100 uM by liquid scintillation counting; assay type: cell-based
[11] = target: Sodium-dependent dopamine transporter (Homo sapiens, UniProt Q01959); assay: Inhibition of [3H]dopamine uptake at human DAT expressed in HEK293 cells; assay type: cell-based
Sodium-dependent dopamine transporter, sequence (Q01959 whole entry): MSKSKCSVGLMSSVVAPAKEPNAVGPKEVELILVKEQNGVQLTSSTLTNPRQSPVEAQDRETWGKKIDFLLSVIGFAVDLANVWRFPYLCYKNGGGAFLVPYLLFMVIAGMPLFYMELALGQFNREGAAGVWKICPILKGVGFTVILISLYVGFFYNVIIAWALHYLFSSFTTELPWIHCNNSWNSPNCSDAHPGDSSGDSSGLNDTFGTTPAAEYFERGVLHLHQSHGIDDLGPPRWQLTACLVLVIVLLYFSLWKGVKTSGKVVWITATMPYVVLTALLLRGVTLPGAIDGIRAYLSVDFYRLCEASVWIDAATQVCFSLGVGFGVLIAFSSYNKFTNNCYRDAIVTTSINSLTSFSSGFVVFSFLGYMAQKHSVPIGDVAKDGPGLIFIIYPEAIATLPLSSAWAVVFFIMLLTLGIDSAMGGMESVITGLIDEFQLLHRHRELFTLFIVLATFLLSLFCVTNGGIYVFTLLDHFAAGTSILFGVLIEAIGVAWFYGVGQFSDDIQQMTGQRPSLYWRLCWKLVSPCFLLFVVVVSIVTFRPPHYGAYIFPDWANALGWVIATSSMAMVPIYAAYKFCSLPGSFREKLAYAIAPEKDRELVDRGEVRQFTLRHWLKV

Row | SMILES | AD50 (Mus musculus [1]) | Activity [2] | pIC50 [3] | AD50 (Mus musculus [4]) | Activity [5] | pIC50 [6] | AD50 (Mus musculus [7]) | AD50 (Mus musculus [8]) | Activity [9] | Activity [10] | pIC50 [11]
1 | COc1cccc(C(=O)C(C)NC2CCCC2)c1 (centres undefined) | inactive | inactive | 5.09 | inactive | inactive | 5.16 | inactive | inactive | inactive | inactive | 5.64
2 | CC(NC(C)(C)C)C(=O)c1ccc(Br)cc1 (centres undefined) | 0.15 mg/kg | inactive | 5.60 | 29 mg/kg | inactive | 5.35 | inactive | 23.5 mg/kg | inactive | inactive | 6.16
3 | CCC(NC(C)(C)C)C(=O)c1ccc(Cl)c(Cl)c1 (centres undefined) | 0.05 mg/kg | inactive | 6.41 | inactive | inactive | 5.96 | inactive | inactive | inactive | inactive | 6.93
4 | CC(NC(C)(C)C)C(=O)c1ccc(Cl)cc1 (centres undefined) | 0.43 mg/kg | inactive | 5.68 | 32 mg/kg | inactive | 5.01 | 31 mg/kg | inactive | inactive | inactive | 5.96
